Experimental data: PubChem BioAssay (NCI)
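1) Cells in 96-well plates. 2) Compound, 48 h, 5 concentrations. 3) Linear interpolation between surrounding doses. 4) Unreached endpoint = highest concentration. Abbreviation: GI50, concentration required for 50% inhibition of growth. TGI: concentration producing complete growth inhibition.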

Assays:
Experiment in all cases: NCI tumour cell line growth inhibition, 48 h
COLO 205 colon = tested on: COLO 205 colon
M14 melanoma = tested on: M14 melanoma
MDA-MB-231 breast = tested on: MDA-MB-231 breast
MDA-N = tested on: MDA-N
NCI-H23 lung = tested on: NCI-H23 lung
PC-3 prostate = tested on: PC-3 prostate
RXF 393 renal = tested on: RXF 393 renal
SF-295 CNS = tested on: SF-295 CNS
SN12C renal = tested on: SN12C renal
T-47D breast = tested on: T-47D breast
TK-10 renal = tested on: TK-10 renal
U251 CNS = tested on: U251 CNS
UO-31 renal = tested on: UO-31 renal
MCF7 breast = tested on: MCF7 breast

| Structure (SMILES) | TGI (COLO 205 colon) [µM] | TGI (M14 melanoma) [µM] | TGI (MDA-MB-231 breast) [µM] | TGI (MDA-N) [µM] | TGI (NCI-H23 lung) [µM] | TGI (PC-3 prostate) [µM] | TGI (RXF 393 renal) [µM] | TGI (SF-295 CNS) [µM] | TGI (SN12C renal) [µM] | TGI (T-47D breast) [µM] | TGI (TK-10 renal) [µM] | TGI (U251 CNS) [µM] | TGI (UO-31 renal) [µM] | TGI (MCF7 breast) [µM] | GI50 (MCF7 breast) [µM] |
| --- | --- | --- | --- | --- | --- | --- | --- | --- | --- | --- | --- | --- | --- | --- | --- |
| CCOC(=O)c1cc(I)c(-c2cc(C)no2)n1C | > 100 | > 100 | > 100 | > 100 | > 100 | > 100 | 42.8 | > 100 | 69.4 | > 100 | > 100 | > 100 | > 100 | – | – |
| CC1(C)C(=O)c2ccccc2OC1N1CCN(C2Oc3ccccc3C(=O)C2(C)C)CC1 (centres undefined) | > 100 | > 100 | > 100 | > 100 | > 100 | > 100 | > 100 | – | > 100 | > 100 | > 100 | > 100 | > 100 | > 100 | – |
| O=S(OC12CC3CC(CC(C3)C1)C2)c1cc(Cl)cc(Cl)c1OCc1ccccc1 (centres undefined) | – | > 100 | – | – | > 100 | – | > 100 | – | > 100 | – | > 100 | > 100 | > 100 | – | – |
| O=c1[nH]c(=O)n(C2CC(O)C(CO)O2)cc1NN=NCCCc1ccccc1 (centres undefined) | > 100 | > 100 | > 100 | > 100 | > 100 | > 100 | > 100 | > 100 | > 100 | > 100 | > 100 | – | – | > 100 | – |
| CC(=O)OCC1OC(OCCCCCCO)C(OC(C)=O)C(OC(C)=O)C1OC(C)=O (centres undefined) | – | > 100 | > 100 | > 100 | > 100 | > 100 | > 100 | > 100 | > 100 | – | > 100 | > 100 | > 100 | > 100 | – |
| CCN(CC)C(=S)Nc1ccc(-c2cc3ccc(O)cc3oc2=O)cc1 | > 100 | > 100 | > 100 | > 100 | > 100 | > 100 | > 100 | > 100 | > 100 | – | > 100 | 85.1 | > 100 | – | – |
| COC(=O)CCc1ccc2c(c1)C(=O)CC2 | – | > 100 | > 100 | > 100 | > 100 | > 100 | > 100 | > 100 | – | > 100 | > 100 | > 100 | > 100 | > 100 | – |
| CC1(C)C(CCO)CC1n1cc(I)c(=O)[nH]c1=O (centres undefined) | > 100 | > 100 | > 100 | > 100 | – | > 100 | > 100 | > 100 | > 100 | > 100 | > 100 | > 100 | > 100 | > 100 | – |
| CCOC(=O)c1c(Br)c(-c2ccc(OC)cc2)c(Br)n1C | > 100 | > 100 | > 100 | – | > 100 | > 100 | 45 | 56.1 | 49.2 | 82.1 | 94 | > 100 | 89.2 | 39.7 | 15.9 |
| O=C1C=C2SC3C[C@@]24CC1[N+]1=c2c4c(c(O)c4c2=C(C=N4)CC1)N3 | 3.57 | – | – | – | – | – | 3.84 | 11.6 | 6.95 | – | – | 3.33 | 30.3 | 4.23 | – |
| C(/Cc1ccc2c(c1)OCO2)=N\NC1=NCCN1 | > 100 | > 100 | > 100 | – | > 100 | > 100 | > 100 | > 100 | > 100 | > 100 | > 100 | > 100 | > 100 | > 100 | – |
| O=C(NC1CCCCC1)c1cc2ccccc2cc1O | > 100 | 53.3 | > 100 | – | – | 99 | 58.5 | > 100 | – | > 100 | > 100 | > 100 | 99 | > 100 | – |
| CCOC(=O)c1nc2ccccc2nc1Oc1ccc(C(=O)OC)cc1 | > 100 | > 100 | > 100 | > 100 | – | > 100 | > 100 | > 100 | > 100 | > 100 | > 100 | > 100 | > 100 | > 100 | – |
| O=c1[nH]c2ccccc2c(O)c1/C=N/C(=S)NCc1ccccc1 | > 100 | > 100 | > 100 | > 100 | > 100 | > 100 | – | > 100 | > 100 | > 100 | > 100 | > 100 | > 100 | > 100 | – |
| CCOC(=O)C[n+]1cccc(C2(c3cc4ccccc4[nH]3)OCCO2)c1 | > 100 | > 100 | > 100 | – | > 100 | > 100 | > 100 | > 100 | – | > 100 | > 100 | > 100 | > 100 | > 100 | – |
| Brc1ccc2c3c1[C@H]1O[C@H]1c1cccc(c1-3)[C@@H]1O[C@H]21 | 38.3 | 32.4 | 40.6 | 35.4 | 38.7 | 33.4 | – | 29.3 | 33.3 | 26.8 | 37.4 | 37.1 | 32.1 | 73.1 | – |
| CCOC(=O)C(CC(C)C)NC(=O)CSc1nnc(COc2ccc(Cl)cc2)n1-c1ccccc1 (centres undefined) | 36.2 | 31.9 | 30.6 | – | 29.5 | 30.8 | 34.3 | – | 28.9 | 45.3 | 33.1 | 33.4 | 3.68 | 35 | – |
| CN(C)c1ccc(C=C2C(=O)N(c3ccccc3)N(c3ccccc3)C2=O)cc1 | > 100 | > 100 | > 100 | > 100 | > 100 | > 100 | – | > 100 | > 100 | – | > 100 | > 100 | > 100 | > 100 | – |
